Measured values published in ChEMBL document CHEMBL6121002, “Discovery of novel bicyclic and tricyclic cyclohepta[b]thiophene derivatives as multipotent AChE and BChE inhibitors, in-Vivo and in-Vitro assays, ADMET and molecular docking simulation” (Eur J Med Chem, 2025).
Calls of active or inactive are those of the source. The calls are words filed in the database; no cut-off is given here.

Tests used:
Rattus norvegicus [1] = assay: Antialzheimer activity in AlCl3-induced learning and memory impairment in Sprague-Dawley rat assessed as reduction in escape latency time at 30 mg/kg, po measured after 5 weeks by MWM test relative to control; format: functional; set-up: scale not given: the % may be the effect or the level left
Rattus norvegicus [2] = assay: Antialzheimer activity in AlCl3-induced learning and memory impairment in Sprague-Dawley rat assessed as fold increase in time spent in target quadrant at 30 mg/kg, po measured after 5 weeks by […] relative to control; format: functional
Rattus norvegicus [3] = assay: Antialzheimer activity in AlCl3-induced learning and memory impairment in Sprague-Dawley rat assessed as increase in time spent in target quadrant at 30 mg/kg, po measured after 5 weeks by […]; format: functional, organism-based
Rattus norvegicus [4] = assay: Antialzheimer activity in AlCl3-induced learning and memory impairment in Sprague-Dawley rat assessed as time taken for learning at 30 mg/kg, po measured after 5 weeks by MWM test (reference value: 53.67 +/- 1.05 sec); format: functional
Rattus norvegicus [5] = assay: Antialzheimer activity in AlCl3-induced learning and memory impairment in Sprague-Dawley rat assessed as time taken for memory at 30 mg/kg, po measured after 5 weeks by MWM test (reference value: 6.833 +/- 0.79 sec); format: functional
Rattus norvegicus [6] = assay: Antialzheimer activity in AlCl3-induced learning and memory impairment in Sprague-Dawley rat assessed as spontaneous alternation at 30 mg/kg, po measured after 5 weeks by Y-maze test (reference value: 50 +/- 2.89 %); format: functional
Rattus norvegicus [7] = assay: Antialzheimer activity in AlCl3-induced learning and memory impairment in Sprague-Dawley rat assessed as reduction in TNF-alpha level in brain tissue at 30 mg/kg, po measured after 5 weeks by ELISA relative to control; format: functional; set-up: scale not given: the % may be the effect or the level left
Rattus norvegicus [8] = assay: Antialzheimer activity in AlCl3-induced learning and memory impairment in Sprague-Dawley rat assessed as fold increase in dopamine level in brain tissue at 30 mg/kg, po measured after 5 weeks by fluorometric analysis relative to control; format: functional
Rattus norvegicus [9] = assay: Antialzheimer activity in AlCl3-induced learning and memory impairment in Sprague-Dawley rat assessed as fold increase in norepinephrine level in brain tissue at 30 mg/kg, po measured after 5 weeks by fluorometric analysis relative to control; format: functional
Rattus norvegicus [10] = assay: Antialzheimer activity in AlCl3-induced learning and memory impairment in Sprague-Dawley rat assessed as fold decrease in AChE level in brain tissue at 30 mg/kg, po measured after 5 weeks by fluorometric analysis relative to control; format: functional
Acetylcholinesterase = Acetylcholinesterase (Homo sapiens, UniProt P22303); assay: Inhibition of AChE (unknown origin) incubated for 40 mins in presence of substrate
Sequence of Acetylcholinesterase (P22303 whole entry): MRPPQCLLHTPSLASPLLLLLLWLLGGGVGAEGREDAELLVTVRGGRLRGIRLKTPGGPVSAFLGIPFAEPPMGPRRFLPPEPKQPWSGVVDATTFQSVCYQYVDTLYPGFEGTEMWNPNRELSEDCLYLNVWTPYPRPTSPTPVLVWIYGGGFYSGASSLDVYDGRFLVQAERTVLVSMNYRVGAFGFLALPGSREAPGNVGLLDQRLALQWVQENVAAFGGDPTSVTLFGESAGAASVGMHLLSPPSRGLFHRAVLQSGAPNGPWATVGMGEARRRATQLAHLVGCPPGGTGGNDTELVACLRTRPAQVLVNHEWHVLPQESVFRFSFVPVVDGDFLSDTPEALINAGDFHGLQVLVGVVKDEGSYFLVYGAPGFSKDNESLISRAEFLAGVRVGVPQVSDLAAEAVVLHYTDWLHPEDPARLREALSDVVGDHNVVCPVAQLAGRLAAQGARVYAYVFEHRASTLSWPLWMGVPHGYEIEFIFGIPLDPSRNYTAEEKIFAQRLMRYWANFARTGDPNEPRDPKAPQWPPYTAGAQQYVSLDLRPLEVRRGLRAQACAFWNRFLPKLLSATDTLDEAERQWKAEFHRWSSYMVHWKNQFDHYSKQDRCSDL

Cholinesterase = Cholinesterase (Homo sapiens, UniProt P06276); assay: Inhibition of BChE (unknown origin) using butyrylthiocholine iodide as substrate incubated for 20 mins by fluorescence based assay
Sequence of Cholinesterase (P06276 whole entry): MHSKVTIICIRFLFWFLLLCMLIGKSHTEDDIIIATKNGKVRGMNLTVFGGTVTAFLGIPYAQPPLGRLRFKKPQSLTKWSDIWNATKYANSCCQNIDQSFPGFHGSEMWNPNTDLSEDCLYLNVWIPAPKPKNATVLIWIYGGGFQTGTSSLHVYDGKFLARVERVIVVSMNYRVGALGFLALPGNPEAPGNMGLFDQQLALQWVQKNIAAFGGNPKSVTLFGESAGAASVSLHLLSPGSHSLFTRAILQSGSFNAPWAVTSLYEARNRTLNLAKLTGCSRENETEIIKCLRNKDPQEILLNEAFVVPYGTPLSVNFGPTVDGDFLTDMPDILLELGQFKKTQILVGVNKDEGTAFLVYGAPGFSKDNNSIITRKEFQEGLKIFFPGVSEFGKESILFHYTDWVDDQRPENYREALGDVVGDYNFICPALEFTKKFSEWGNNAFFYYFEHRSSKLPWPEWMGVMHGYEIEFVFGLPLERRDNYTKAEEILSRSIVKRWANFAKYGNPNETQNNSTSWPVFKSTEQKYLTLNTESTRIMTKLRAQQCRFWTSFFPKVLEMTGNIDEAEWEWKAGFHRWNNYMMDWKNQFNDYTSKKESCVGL

[11] = Selectivity index, ratio of IC50 for BChE (unknown origin) using butyrylthiocholine iodide as substrate to IC50 for AChE (unknown origin)
Rattus norvegicus [12] = assay: Antialzheimer activity in AlCl3-induced learning and memory impairment in Sprague-Dawley rat assessed as fold increase in 5-HT level in brain tissue at 30 mg/kg, po measured after 5 weeks by fluorometric analysis relative to control; format: functional

Structure (SMILES) | Activity (Rattus norvegicus [1]) | fold change (FC) (Rattus norvegicus [2]) | Activity (Rattus norvegicus [3]) | Time (Rattus norvegicus [4]) | Time (Rattus norvegicus [5]) | Activity (Rattus norvegicus [6]) | Activity (Rattus norvegicus [7]) | fold change (FC) (Rattus norvegicus [8]) | fold change (FC) (Rattus norvegicus [9]) | fold change (FC) (Rattus norvegicus [10]) | IC50 (Acetylcholinesterase) | IC50 (Cholinesterase) | Ratio IC50 [11] | fold change (FC) (Rattus norvegicus [12])
COc1ccc(N2C(=O)c3c(sc4c3CCCCC4)OC2c2ccccc2)cc1 (stereo not drawn) | <=43% | 5.6 | Active | 23 s | 38.17 s | 74.33% | 62.6% | 3.5 | 1.7 | 2.3 | 4.05 µM | 11 µM | 2.73 | 
CCOC(=O)c1c(OC(=O)c2ccccc2)sc2c1CCCCC2 |  |  | Active | 37 s | 24.17 s | 63.5% | 43.8% | 1.7 |  |  | 2.16 µM | 7.5 µM | 3.47 | 
COc1cc2c(cc1OC)C(=O)C(CC1CCN(Cc3ccccc3)CC1)C2 (stereo not drawn) [DONEPEZIL] | 28% |  | Active | 14.78 s | 42.67 s | 85% | 63% |  |  |  |  |  |  | 
O=C1c2c(sc3c2CCCCC3)OC(c2ccc(Cl)cc2)N1c1ccccc1 (stereo not drawn) | <=46% | 5.4 | Active | 24.67 s | 36.83 s | 73.83% | 54.6% | 1.7 | 1.7 | 2.3 | 0.55 µM | 6.9 µM | 12.6 | 
O=C1c2c(sc3c2CCCCC3)OC(c2ccccc2)N1c1ccccc1 (stereo not drawn) | 32% | 5.3 | Active | 17 s | 35.83 s | 80% | 61.2% | 3.8 | 2.2 | 3.5 | 0.51 µM | 2.48 µM | 4.86 | 4.5
O=C1c2c(sc3c2CCCCC3)OC(c2ccccc2)N1c1ccc(Cl)cc1 (stereo not drawn) | <=47% | 5.2 | Active | 25.67 s | 35.5 s | 71.5% | 54.5% | 1.7 | 1.7 | 2.3 | 9.48 µM | 24.7 µM | 2.6 | 
O=C1c2c(sc3c2CCCCC3)OC(c2ccc(Cl)cc2)N1c1ccc(Cl)cc1 (stereo not drawn) | 22% | 6.5 | Active | 11.83 s | 46.5 s | 83.33% | 73.9% | 4.2 | ~3.2 |  | 12.6 µM | 308 µM | 24.4 | 5.8
CCOC(=O)c1c(OC(=O)c2ccc(Cl)cc2)sc2c1CCCCC2 |  |  | Active | 34 s | 27.67 s | 70.67% | 49.2% | 1.7 |  |  | 1.05 µM | 2.9 µM | 2.76 | 
COc1ccc(N2C(=O)c3c(sc4c3CCCCC4)OC2c2ccc(Cl)cc2)cc1 (stereo not drawn) | 30% | 5.9 | Active | 16.33 s | 41.67 s | 85% | 70.8% | 3.8 | 2.9 |  | 3.14 µM | 7.76 µM | 2.47 | 5.1
